Columns and labels:
Type in all cases: cell-based
hNLRP3 = target: T1, hNLRP3 (Homo sapiens, UniProt Q96P20); experiment: hNLRP3 agonist assay: IL-1β production in PMA-differentiated THP-1 cells (ELISA); conditions: Table 2, 4 hours, IL-1β by ELISA
T1 construct: THP-1 cells were purchased from the American Type Culture Collection; host or cells: THP-1 cells, PMA-differentiated
Method: THP-1 cells were purchased from the American Type Culture Collection and sub-cultured according to instructions from the supplier. Prior to experiments, cells were cultured in RPMI 1640 containing 10% heat inactivated FBS, penicillin (100 units/ml) and streptomycin (100 μg/ml), and maintained in log phase prior to experimental setup. Prior to the experiment THP-1 were treated with PMA (Phorbol 12-myristate 13-acetate) (10 μg/ml) for 24 hours. The day of the experiment the media was removed and attaching cells were treated with trypsin for 2 minutes, cells were then collected, washed with PBS (phosphate buffer saline), spin down, resuspended in 2% heat inactivated FBS with RPMI at a concentration of 1×10^6 cells/ml, and 100 μl was plated in a 96 well plate. Cells were incubated with compounds for 4 hours. Cell free supernatant was collected and the production of IL-1β was evaluated by ELISA. Compounds were dissolved in dimethyl sulfoxide (DMSO) and added to the culture medium to achieve desired concentration (e.g. 100, 30, 10, 3, 1, 0.3 or 0.1 μM). A vehicle only control was run concurrently with each experiment. Final DMSO concentration was 1%.

TLR7 = target: T2, TLR7 (Homo sapiens, UniProt Q9NYK1); experiment: TLR7 EC50 assay; conditions: Table 2
T2 sequence (Q9NYK1 27-1049): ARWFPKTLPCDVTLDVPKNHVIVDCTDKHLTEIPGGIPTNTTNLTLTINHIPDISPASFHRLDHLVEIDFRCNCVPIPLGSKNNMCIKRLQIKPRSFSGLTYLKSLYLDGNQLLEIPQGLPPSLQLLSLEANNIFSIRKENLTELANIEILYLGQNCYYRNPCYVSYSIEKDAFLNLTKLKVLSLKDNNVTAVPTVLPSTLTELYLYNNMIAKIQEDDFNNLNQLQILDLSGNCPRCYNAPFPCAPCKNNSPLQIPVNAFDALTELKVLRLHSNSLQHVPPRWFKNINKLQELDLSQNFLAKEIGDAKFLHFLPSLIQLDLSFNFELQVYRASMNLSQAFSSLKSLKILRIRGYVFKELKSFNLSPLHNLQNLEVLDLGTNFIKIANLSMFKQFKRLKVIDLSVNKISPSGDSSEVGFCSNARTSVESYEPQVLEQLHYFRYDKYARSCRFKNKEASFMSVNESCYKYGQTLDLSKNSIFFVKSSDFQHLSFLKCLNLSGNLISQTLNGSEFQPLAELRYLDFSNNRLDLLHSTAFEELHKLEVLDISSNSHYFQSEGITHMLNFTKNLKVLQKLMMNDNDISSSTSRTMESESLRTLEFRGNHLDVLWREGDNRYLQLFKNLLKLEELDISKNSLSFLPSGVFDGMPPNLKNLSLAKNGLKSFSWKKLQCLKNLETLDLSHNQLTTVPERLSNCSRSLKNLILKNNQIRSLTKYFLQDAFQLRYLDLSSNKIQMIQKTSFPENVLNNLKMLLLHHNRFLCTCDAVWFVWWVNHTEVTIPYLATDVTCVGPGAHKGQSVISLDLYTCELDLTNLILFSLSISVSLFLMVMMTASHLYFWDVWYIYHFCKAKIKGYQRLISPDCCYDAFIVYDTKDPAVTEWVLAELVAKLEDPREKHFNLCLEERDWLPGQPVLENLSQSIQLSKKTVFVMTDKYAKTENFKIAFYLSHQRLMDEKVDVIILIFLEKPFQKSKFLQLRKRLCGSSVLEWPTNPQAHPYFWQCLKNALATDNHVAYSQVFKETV

TLR8 = target: T3, TLR8 (Homo sapiens, UniProt Q9NR97); experiment: TLR8 EC50 assay; conditions: Table 2
T3 sequence (Q9NR97 27-1041): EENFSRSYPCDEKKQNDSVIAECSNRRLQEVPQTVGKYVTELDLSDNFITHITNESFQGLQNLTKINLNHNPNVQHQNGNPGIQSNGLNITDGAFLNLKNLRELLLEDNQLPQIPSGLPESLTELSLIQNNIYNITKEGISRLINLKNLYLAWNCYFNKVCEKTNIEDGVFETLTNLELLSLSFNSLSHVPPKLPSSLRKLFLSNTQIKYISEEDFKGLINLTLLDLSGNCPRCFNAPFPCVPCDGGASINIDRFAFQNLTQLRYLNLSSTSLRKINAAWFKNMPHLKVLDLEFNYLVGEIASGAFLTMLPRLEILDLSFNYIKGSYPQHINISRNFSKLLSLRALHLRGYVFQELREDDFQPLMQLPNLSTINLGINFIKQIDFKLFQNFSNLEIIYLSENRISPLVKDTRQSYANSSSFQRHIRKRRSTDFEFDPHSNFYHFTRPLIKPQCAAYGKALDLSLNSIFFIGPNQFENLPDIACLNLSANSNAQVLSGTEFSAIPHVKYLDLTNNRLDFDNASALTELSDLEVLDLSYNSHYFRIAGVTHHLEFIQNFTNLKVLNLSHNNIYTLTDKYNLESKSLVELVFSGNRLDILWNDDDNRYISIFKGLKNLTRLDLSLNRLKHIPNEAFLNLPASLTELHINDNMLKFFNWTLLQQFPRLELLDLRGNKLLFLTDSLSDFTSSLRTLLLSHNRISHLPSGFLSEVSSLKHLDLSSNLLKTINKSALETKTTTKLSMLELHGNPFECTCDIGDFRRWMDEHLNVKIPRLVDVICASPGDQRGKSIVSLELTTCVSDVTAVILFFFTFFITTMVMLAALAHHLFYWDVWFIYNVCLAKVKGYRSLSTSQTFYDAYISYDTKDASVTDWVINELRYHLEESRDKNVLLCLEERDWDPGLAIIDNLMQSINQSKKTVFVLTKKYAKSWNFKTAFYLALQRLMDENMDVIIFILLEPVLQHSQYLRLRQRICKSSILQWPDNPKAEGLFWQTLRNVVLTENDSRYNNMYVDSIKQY

T1 sequence (Q96P20 whole entry): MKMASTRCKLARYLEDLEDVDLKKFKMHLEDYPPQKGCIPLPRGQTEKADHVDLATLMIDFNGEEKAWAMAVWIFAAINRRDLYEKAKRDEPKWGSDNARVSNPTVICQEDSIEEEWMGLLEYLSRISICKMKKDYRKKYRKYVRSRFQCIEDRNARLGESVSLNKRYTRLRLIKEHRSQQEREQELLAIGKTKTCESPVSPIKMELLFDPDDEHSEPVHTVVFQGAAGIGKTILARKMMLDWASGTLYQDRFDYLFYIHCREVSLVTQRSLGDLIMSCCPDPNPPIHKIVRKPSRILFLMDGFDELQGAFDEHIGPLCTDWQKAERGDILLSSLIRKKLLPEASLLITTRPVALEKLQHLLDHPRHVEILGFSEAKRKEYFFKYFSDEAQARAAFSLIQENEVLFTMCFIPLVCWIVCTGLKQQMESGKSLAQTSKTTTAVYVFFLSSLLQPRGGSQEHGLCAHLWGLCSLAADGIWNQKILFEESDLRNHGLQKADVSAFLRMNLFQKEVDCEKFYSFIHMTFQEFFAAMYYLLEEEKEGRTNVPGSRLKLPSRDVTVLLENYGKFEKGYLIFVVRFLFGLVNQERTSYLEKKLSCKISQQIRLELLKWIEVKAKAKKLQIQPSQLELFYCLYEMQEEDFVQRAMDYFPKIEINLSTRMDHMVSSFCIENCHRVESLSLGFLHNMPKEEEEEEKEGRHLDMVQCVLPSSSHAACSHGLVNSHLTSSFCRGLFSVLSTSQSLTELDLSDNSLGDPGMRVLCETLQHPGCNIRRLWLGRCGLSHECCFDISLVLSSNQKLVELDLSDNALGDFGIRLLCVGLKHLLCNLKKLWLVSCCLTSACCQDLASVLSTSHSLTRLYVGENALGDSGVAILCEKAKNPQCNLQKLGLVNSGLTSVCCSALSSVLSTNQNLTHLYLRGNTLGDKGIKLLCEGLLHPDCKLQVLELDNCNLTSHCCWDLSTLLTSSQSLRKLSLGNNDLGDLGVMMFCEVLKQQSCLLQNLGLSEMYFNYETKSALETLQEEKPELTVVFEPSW

SMILES | EC50 (hNLRP3) [µM] | EC50 (TLR7) [µM] | EC50 (TLR8) [µM]
Nc1nc2ccccc2c2[nH]c(C3COC3)nc12 [Compound 129] | 20 to 100 | > 100 | > 100
Cn1c(CCCO)nc2c(N)nc3ccccc3c21 [Compound 130] | 20 to 100 | > 100 | > 100
Nc1nc2cc(Br)ccc2c2[nH]c(C3CCC(N)CC3)nc12 (stereo not drawn) [Compound 131] | 20 to 100 | > 100 | 20 to 100
Nc1nc2ccccc2c2[nH]c([C@H]3C[C@@H](O)C3)nc12 [Compound 132] | 20 to 100 | > 100 | > 100
Nc1nc2ccccc2c2[nH]c([C@H]3C[C@H](O)C3)nc12 [Compound 133] | 20 to 100 | > 100 | > 100
Nc1nc2ccccc2c2[nH]c([C@H]3CC[C@@H](O)CC3)nc12 [Compound 134] | 20 to 100 | > 100 | > 100
Nc1nc2ccccc2c2[nH]c([C@H]3CC[C@H](O)CC3)nc12 [Compound 135] | 20 to 100 | > 100 | > 100
Nc1nc2cc(F)c(F)cc2c2[nH]c(CCCO)nc12 [Compound 136] | 20 to 100 | > 100 | > 100
CN1CCC[C@H](c2nc3c(N)nc4ccccc4c3[nH]2)C1 [Compound 138] | 20 to 100 | > 100 | > 100
CN1CCC[C@@H](c2nc3c(N)nc4ccccc4c3[nH]2)C1 [Compound 139] | 20 to 100 | > 100 | > 100
COC(=O)CCCn1c(CCCO)nc2c(N)nc3cc(Br)ccc3c21 [Compound 141] | 1 to 20 | > 100 | > 100
COC(=O)CCn1c(CCCO)nc2c(N)nc3cc(Br)ccc3c21 [Compound 142] | 1 to 20 | > 100 | > 100
Nc1nc2cc(-c3ccccc3)ccc2c2[nH]c(CCCO)nc12 [Compound 145, 3-(4-amino-7-phenyl-1H-imidazo[4,5-c]quinolin-2-yl)propan-1-ol] | ≤ 1 | > 100 | > 100
Nc1nc2cc(-c3cccnc3)ccc2c2[nH]c(CCCOCc3ccccc3)nc12 [Compound 146, 2-(3-phenylmethoxypropyl)-7-pyridin-3-yl-1H-imidazo[4,5-c]quinolin-4-amine] | 20 to 100 | > 100 | > 100
Nc1nc2cc(-c3cccnc3)ccc2c2[nH]c(CCCO)nc12 [Compound 147, 3-(4-amino-7-pyridin-3-yl-1H-imidazo[4,5-c]quinolin-2-yl)propan-1-ol] | 1 to 20 | > 100 | > 100
Nc1nc2cc(-c3ccncc3)ccc2c2[nH]c(CCCOCc3ccccc3)nc12 [Compound 148, 2-(3-phenylmethoxypropyl)-7-pyridin-4-yl-1H-imidazo[4,5-c]quinolin-4-amine] | 20 to 100 | > 100 | > 100
Nc1nc2cc(-c3ccncc3)ccc2c2[nH]c(CCCO)nc12 [Compound 149] | 1 to 20 | > 100 | > 100
Cc1cc(-c2ccc3c(c2)nc(N)c2nc(CCCOCc4ccccc4)[nH]c23)n(C)n1 [Compound 150, 7-(2,5-dimethylpyrazol-3-yl)-2-(3-phenylmethoxypropyl)-1H-imidazo[4,5-c]quinolin-4-amine] | > 100 | > 100 | > 100
Cc1cc(-c2ccc3c(c2)nc(N)c2nc(CCCO)[nH]c23)n(C)n1 [Compound 151, 3-[4-amino-7-(2,5-dimethylpyrazol-3-yl)-1H-imidazo[4,5-c]quinolin-2-yl]propan-1-ol] | 1 to 20 | > 100 | > 100
CCCn1cc(-c2ccc3c(c2)nc(N)c2nc(CCCOCc4ccccc4)[nH]c23)cn1 [Compound 152, 2-(3-phenylmethoxypropyl)-7-(1-propylpyrazol-4-yl)-1H-imidazo[4,5-c]quinolin-4-amine] | 20 to 100 | > 100 | > 100
CCCn1cc(-c2ccc3c(c2)nc(N)c2nc(CCCO)[nH]c23)cn1 [Compound 153, 3-[4-amino-7-(1-propylpyrazol-4-yl)-1H-imidazo[4,5-c]quinolin-2-yl]propan-1-ol] | 1 to 20 | > 100 | > 100
Cc1ncc(-c2ccc3c(c2)nc(N)c2nc(CCCOCc4ccccc4)[nH]c23)cn1 [Compound 154, 7-(2-methylpyrimidin-5-yl)-2-(3-phenylmethoxypropyl)-1H-imidazo[4,5-c]quinolin-4-amine] | 1 to 20 | > 100 | > 100
Cc1ncc(-c2ccc3c(c2)nc(N)c2nc(CCCO)[nH]c23)cn1 [Compound 155, 3-[4-amino-7-(2-methylpyrimidin-5-yl)-1H-imidazo[4,5-c]quinolin-2-yl]propan-1-ol] | 1 to 20 | > 100 | > 100
CN(C)c1ncc(-c2ccc3c(c2)nc(N)c2nc(CCCO)[nH]c23)cn1 [Compound 156, 3-[4-amino-7-[2-(dimethylamino)pyrimidin-5-yl]-1H-imidazo[4,5-c]quinolin-2-yl]propan-1-ol] | > 100 | > 100 | > 100
Nc1nc2cc(-c3cccnc3F)ccc2c2[nH]c(CCCOCc3ccccc3)nc12 [Compound 157, 7-(2-fluoropyridin-3-yl)-2-(3-phenylmethoxypropyl)-1H-imidazo[4,5-c]quinolin-4-amine] | > 100 | > 100 | > 100
Nc1nc2cc(-c3cccnc3F)ccc2c2[nH]c(CCCO)nc12 [Compound 158, 3-[4-amino-7-(2-fluoropyridin-3-yl)-1H-imidazo[4,5-c]quinolin-2-yl]propan-1-ol] | 1 to 20 | > 100 | > 100
CC(C)c1ccc2c(c1)nc(N)c1nc(CCCO)[nH]c12 [Compound 159, 3-(4-amino-7-propan-2-yl-1H-imidazo[4,5-c]quinolin-2-yl)propan-1-ol] | 1 to 20 | 20 to 100 | > 100

Source: patent US11072612B2, “NLRP3 modulators” (INNATE TUMOR IMMUNITY, INC., priority 2016, dated 2021)
